The values below come from patent US11260056B2, “Diaminopyrimidine P2X3 and P2X2/3 receptor modulators for use in the treatment of cough” (Afferent Pharmaceuticals, Inc., priority 2015, dated 2022).

Type in all cases: in vivo, human
The nature of series [1]: Phase 1/Phase 2 clinical studies: safety, tolerability and pharmacokinetics after oral administration. The method, then: Compound 16 has progressed to completion of 6 Phase 1 studies and 5 Phase 2 studies, with several studies in progress or soon to commence, and over 400 subjects dosed at least once with Compound 16. […] Studies in normal healthy volunteers have explored safety, tolerability and pharmacokinetics of Compound 16 following oral administration of doses from 10 mg to 1800 mg for up to 3 weeks. […] Plasma half-life falls in the range of 7-9 h, with steady state for BID dosing achieved after 3 doses.

The test system of a further series is chronic cough patients. As to the kind of experiment: Phase 2b dose-escalation crossover study in chronic cough patients. On the procedure:
Cough frequency was measured objectively utilizing a cough recording device, with periodic measurements following Compound 16 treatment compared to a baseline recording.
The 29-patient randomized, double-blind, placebo controlled, Phase 2b crossover study was conducted at 10 clinical sites in the U.S. Patients were randomized to either Compound 16 or placebo arms. Those in the treatment group received Compound 16 50 mg, followed by a titration up to 100 mg, 150 mg and 200 mg, with each dose given twice daily for four days. Treatment period one was followed by a 3-5 day washout period. Patients were then crossed over to the alternate arm of the study and treated with either Compound 16 or placebo for 16 more days.

For series [2], the system named is treatment-resistant chronic cough patients. As to the kind of experiment: Double-blind randomized placebo-controlled crossover trial in idiopathic/treatment-resistant chronic cough. As to conditions: 600 mg bd. On the procedure: Thus, the inventors explored the role of P2X3 receptors in the sensitization of vagal pathways mediating the cough reflex leading to chronic cough (CC). A study was performed to investigate the efficacy of oral administration of Compound 16 in reducing daytime cough in idiopathic/treatment-resistant chronic cough.
In this study, a double-blind randomized placebo-controlled crossover trial, 24 subjects (19 women, mean age 55 yrs) were randomized into a double blind, placebo-controlled, 2-period, crossover study, of Compound 16, 600 mg bd. Cough was assessed using an ambulatory sound monitoring system at baseline and after 2 weeks of treatment; primary endpoint, daytime objective cough frequency (coughs/hr) (VitaloJAK™); secondary endpoints, cough severity and urge to cough (UTC) visual analogue scales (VAS), global ratings of change and cough quality of life questionnaire (CQLQ).

Turning to `COc1cc(C(C)C)c(Oc2cnc(N)nc2N)cc1S(N)(=O)=O` [Compound 16, 5-(2,4-Diamino-pyrimidin-5-yloxy)-4-isopropyl-2-methoxy-benzenesulfonamide], in series [1] (human, oral BID dosing), the “steady state for BID dosing achieved after” value stood at 3 doses. Besides, in series [1] (human, based on % dose recovered in urine), the oral bioavailability entry is “appears to be high”. The Clinical safety entry in series [1] (over 400 subjects dosed at least once, 10 mg to 1800 mg) is given as “excellent”. Also, the “adverse events (AEs)” value in series [1] (patients and healthy volunteers, dose-dependent, notable at higher dose levels) is reported as “limited to oropharyngeal findings (hypogeusia)”. This compound had a half-life in series [1] (plasma, human, oral, immediate release formulation) of 7 to 9 h. Besides, in the series with chronic cough patients (50 mg dose versus 600 mg twice daily in the first study), the “incidence of decreased taste acuity” value is recorded as “much less at the 50 mg dose”. For the same compound, the tolerability entry in the series on chronic cough patients (50-200 mg twice daily) is recorded as “generally well tolerated”. Also, the “patients who discontinued treatment due to the taste effect” value in the series with chronic cough patients (at any dose, 29 patients) is reported as “Only one patient discontinued treatment”. Moreover, the “CQLQ (cough quality of life questionnaire), mean difference vs. placebo” value in series [2] (2 weeks, (−2 to −17), p=0.018) was −9. Besides, in series [2] (2 weeks, (−2 to −41), p=0.035), the “UTC (urge to cough) VAS, mean difference vs. placebo” value was −21 mm. Also, the “cough severity VAS, mean difference vs. placebo” value in series [2] (2 weeks, (−10 to −42), p=0.003) was −26 mm. Moreover, the “daytime coughs/hr, mean difference vs. placebo” value in series [2] (after 2 weeks of treatment, 95% CI −50 to −88, p<0.001) is recorded as −75%. Further, in series [2] (compared to 2/22 treated with placebo), the “patients who rated an improved cough” value is listed as 13/24. The “reduction in objective daytime cough counts” value in series [2] (patients with refractory chronic cough) stood at 75%.

As a reminder, the half-life is the time in which the quantity being followed falls by half.
